# Values quoted from earlier work, collected in patent US10155050B2, “Cross-linked star-shaped self-assembled polypeptides and its use as carriers in biomedical applications” (CENTRO DE INVESTIGACION PRINCIPE FELIPE, priority 2015, dated 2018).
# Conditions: FVB mice
substance,measurement,value
inulin,renal clearance value,around 20 mL/h
